Results reported in patent US20090093476A1, “PYRROLO[1,2-A]QUINOXALINE DERIVATIVES AS ADENOSINE A3 RECEPTOR MODULATORS AND USES THEREOF” (FAUST PHARMACEUTICALS, priority 2005, published 2009).
Structures can show the parent of a compound that is named as a salt.

Tests used:
[1] = target: T1, Human A3 receptor (Homo sapiens, UniProt P0DMS8); experiment: Human A3 receptor binding assay, [125I]AB-MECA, HEK-293 cells; set-up: expressed in transfected cells; conditions: [125I]AB-MECA 0.15 nM; for inhibition at 1 µM: read-out: hA3 inhibition at 1 μM (of specific binding); for IC50: HEK-293 cells, read-out: hA3 IC50
T1 sequence (P0DMS8 1-318): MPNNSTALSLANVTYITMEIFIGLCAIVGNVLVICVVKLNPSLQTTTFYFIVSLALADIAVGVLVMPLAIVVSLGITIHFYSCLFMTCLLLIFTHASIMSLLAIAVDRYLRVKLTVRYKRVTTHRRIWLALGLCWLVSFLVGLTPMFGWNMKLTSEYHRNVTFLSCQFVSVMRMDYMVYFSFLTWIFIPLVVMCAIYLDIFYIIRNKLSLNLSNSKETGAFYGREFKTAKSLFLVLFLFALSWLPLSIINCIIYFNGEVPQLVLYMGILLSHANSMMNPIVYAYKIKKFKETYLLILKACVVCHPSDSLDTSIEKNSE
Experimental: Compounds of the invention were evaluated in binding assays following procedure described by Salvatore et al. (Proc. Natl. Acad. Sci. (1993), 90:10365-10369). Human A3 receptors were used in HEK-293 cells with [^125I]AB-MECA (0.15 nM) as radioligand, IB-MECA (1 μM) for non-specific binding and 90 minutes of incubation at 22° C.

[2] = target: T2, Human A2B receptor (Homo sapiens, UniProt P29275); experiment: Human A2B receptor binding assay, [3H]MRS1754, HEK-293 cells; conditions: for IC50: [3H]MRS1754 0.5 nM, HEK-293 cells, read-out: hA2B IC50
T2 construct: expressed in transfected cells; host or cells: HEK-293 cells
T2 sequence (P29275 1-332): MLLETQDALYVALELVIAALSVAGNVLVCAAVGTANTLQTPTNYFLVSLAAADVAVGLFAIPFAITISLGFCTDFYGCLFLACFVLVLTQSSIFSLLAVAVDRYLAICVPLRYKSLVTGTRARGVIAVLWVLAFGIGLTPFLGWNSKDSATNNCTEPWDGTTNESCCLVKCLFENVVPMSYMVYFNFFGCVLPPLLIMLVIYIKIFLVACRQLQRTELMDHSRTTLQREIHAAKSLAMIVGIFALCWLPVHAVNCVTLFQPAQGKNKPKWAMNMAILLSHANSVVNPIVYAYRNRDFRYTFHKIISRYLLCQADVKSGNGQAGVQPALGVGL
Experimental: Compounds of the invention were evaluated in binding assays following procedure described by Stehle et al. (Mol. Endocrinol. (1992), 6:384-393). Human A2B receptors were used in HEK-293 cells with [^3H]MRS1754 (0.5 nM) as radioligand, NECA (1 μM) for non-specific binding and 120 minutes of incubation at 22° C.

[3] = target: T3, Human A2A receptor (Homo sapiens, UniProt P29274); experiment: Human A2A receptor binding assay, [3H]CGS 21680, HEK-293 cells; conditions: for IC50 / inhibition at 10 µM: [3H]CGS 21680 6 nM; for IC50: HEK-293 cells, read-out: hA2A IC50; for inhibition at 10 µM: read-out: hA2A inhibition at 10 μM
T3 construct: expressed in transfected cells; host or cells: HEK-293 cells
T3 sequence (P29274 whole entry): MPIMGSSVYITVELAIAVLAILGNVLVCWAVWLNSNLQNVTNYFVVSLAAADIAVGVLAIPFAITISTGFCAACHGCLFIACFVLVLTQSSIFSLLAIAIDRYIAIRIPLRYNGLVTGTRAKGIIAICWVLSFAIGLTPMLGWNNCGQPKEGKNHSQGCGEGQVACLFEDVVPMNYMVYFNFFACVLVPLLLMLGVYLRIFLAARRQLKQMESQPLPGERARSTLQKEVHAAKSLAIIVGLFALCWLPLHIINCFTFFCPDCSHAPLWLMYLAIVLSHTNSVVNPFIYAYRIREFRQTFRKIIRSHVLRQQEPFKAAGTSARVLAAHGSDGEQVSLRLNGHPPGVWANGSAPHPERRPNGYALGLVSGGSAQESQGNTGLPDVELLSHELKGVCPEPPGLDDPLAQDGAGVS
Experimental: Compounds of the invention were evaluated in binding assays following procedure described by Luthin et al. (Mol. Pharmacol. (1995), 47:307-313). Human A2A receptors were used in HEK-293 cells with [^3H]CGS 21680 (6 nM) as radioligand, NECA (10 μM) for non-specific binding and 90 minutes of incubation at 22° C.

[4] = target: T4, Human A1 receptor (Homo sapiens, UniProt P30542); experiment: Human A1 receptor binding assay, [3H]DPCPX, CHO cells; conditions: for inhibition at 10 µM / IC50: [3H]DPCPX 1 nM; for inhibition at 10 µM: read-out: hA1 inhibition at 10 μM; for IC50: CHO cells, read-out: hA1 IC50
T4 construct: expressed in transfected cells; host or cells: CHO cells
T4 sequence (P30542 1-326): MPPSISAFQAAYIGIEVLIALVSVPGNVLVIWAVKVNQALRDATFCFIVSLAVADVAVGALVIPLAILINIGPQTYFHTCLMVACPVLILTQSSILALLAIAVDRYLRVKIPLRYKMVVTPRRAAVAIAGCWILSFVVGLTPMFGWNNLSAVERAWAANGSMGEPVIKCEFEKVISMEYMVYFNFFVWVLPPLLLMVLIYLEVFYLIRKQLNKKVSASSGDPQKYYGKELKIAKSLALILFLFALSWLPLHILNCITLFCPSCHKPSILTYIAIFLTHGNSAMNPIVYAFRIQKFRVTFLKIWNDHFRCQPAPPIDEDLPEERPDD
Experimental: Compounds of the invention were evaluated in binding assays following procedure described by Townsend-Nicholson and Schofield (J. Biol. Chem. (1994), 269:2373-2376). Human A1 receptors were used in CHO cells with [^3H]DPCPX (1 nM) as radioligand, DPCPX (1 μM) for non-specific binding and 60 minutes of incubation at 22° C.

[5] = target: T1, Human A3 receptor; experiment: Functional assay on human A3 receptor: forskolin-stimulated cAMP in CHO cells; type: cell-based; set-up: expressed in transfected cells; host or cells: CHO cells; conditions: for cAMP levels: forskolin 10 μM, example 1 10 μM, Cl-IB-MECA 0.1 μM, Basal 0, Forskolin 100
Experimental: CHO cells expressing the human A3 receptor were grown overnight as a monolayer in 24 well tissue culture plates (400 μl/well; 2×10^5 cells/well). cAMP generation was performed in Dulbecco's modified Eagle's medium (DMEM)/N-2-hydroxyethylpiperazin-N-2-ethansulfonic acid (HEPES) buffer (0.60 g HEPES/50 ml DMEM pH 7.4). Each well was washed twice with HEPES/DMEM buffer (250 μl), and the following added: rolipram (50 μM) and cilostamide (50 μM). This was incubated for 30 min at 37° C. followed by the introduction of the compound of example 1 (10 μM) and Cl-IB-MECA (0.1 μM) or DMEM/HEPES. After a further 10 min of incubation, forskolin was added (10 μM). After a subsequent 15 min, incubation was stopped by aspirating the assay medium and by adding 200 μl of ice-cold 0.1M HCl. The amount of cAMP was determined by competition with [3H]cAMP for protein kinase A (PKA). Briefly, the sample, approximately 1.8 nM [3H]cAMP, and 100 μl of PKA solution were incubated on ice for at least 2.5 h. The incubations were stopped by rapid dilution with 2 ml of icecold Tris HCl buffer (pH 7.4), and bound radioactive material was then recovered by filtration through Whatman GF/C filters. Filters were additionally rinsed with 2×2 ml of Tris HCl buffer, and then the radioactivity was counted in Packard Emulsifier Safe scintillation fluid (3.5 mL). All data reflect three independent experiments.

Q: Which results are given for `COc1ccc(-c2cc3c(=O)[nH]c4ccccc4n3c2)cc1` [Example 2, 2-(4-Methoxy-phenyl)-5H-pyrrolo[1,2-a]quinoxalin-4-one]?
A: inhibition at 1 µM [1]: 82%; melting point: 327 to 332 °C

Q: For `c1ccc(Nc2nc3ccccc3n3cc(-c4ccccc4)cc23)cc1` [Example 3, Phenyl-(2-phenyl-pyrrolo[1,2-a]quinoxalin-4-yl)-amine], which melting point is on record?
A: 172 °C

Q: With `O=c1[nH]c2ccc(N3CCOCC3)cc2n2cc(-c3ccccc3)cc12` [Example 11, 8-Morpholin-4-yl-2-phenyl-5H-pyrrolo[1,2-a]quinoxalin-4-one, trifluoroacetic acid salt] as the compound, how does the IC50 [2] read?
A: > 10 µM

Q: What about the inhibition at 1 µM [1] of the same compound?
A: 90%

Q: What about the IC50 [3] of the same compound?
A: > 10 µM

Q: And the inhibition at 10 µM [4]?
A: 53%

Q: For `Cc1ccc2[nH]c(=O)c3cc(-c4ccccc4)cn3c2c1` [Example 12, 8-Methyl-2-phenyl-5H-pyrrolo[1,2-a]quinoxalin-4-one], which melting point is on record?
A: 314 to 315 °C

Q: With `O=c1[nH]c2ccccc2n2cc(-c3ccccc3)cc12` [Example 1, 2-Phenyl-5H-pyrrolo[1,2-a]quinoxalin-4-one] as the compound, how does the IC50 [2] read?
A: > 1 µM

Q: What about the “affinity on A2B (in words)” value ([2]; up to 1 μM) of the same compound?
A: no detectable affinity

Q: And the IC50 [1]?
A: 0.0093 µM

Q: And the melting point?
A: 301 to 303 °C

Q: What about the IC50 [3] of the same compound?
A: > 10 µM

Q: And the “affinity on A2A (in words)” value ([3]; up to 10 μM)?
A: no detectable affinity

Q: And the “mode of action at A3 receptor (prevents cAMP-decrease evoked by Cl-IB-MECA)” value ([5]; example 1 10 μM vs Cl-IB-MECA 0.1 μM)?
A: antagonist

Q: And the cAMP levels ([5]; n = 1)?
A: 150.133

Q: And the cAMP levels ([5]; n = 2)?
A: 130.150

Q: And the cAMP levels ([5]; n = 3)?
A: 104.510

Q: What about the IC50 [4] of the same compound?
A: > 10 µM

Q: And the “affinity on A1 (in words)” value ([4]; up to 10 μM)?
A: no detectable affinity

Q: Which melting point does the source give for `O=c1[nH]c2ccc(Cl)cc2n2cc(-c3ccccc3)cc12` [Example 13, 8-Chloro-2-phenyl-5H-pyrrolo[1,2-a]quinoxalin-4-one] here?
A: 346 °C

Q: Which melting point does the source give for `CSc1nc2ccccc2n2cc(-c3ccccc3)cc12` [Example 9, 4-Methylsulfanyl-2-phenyl-pyrrolo[1,2-a]quinoxaline] here?
A: 132 °C

Q: Which melting point does the source give for `c1ccc(CCNc2nc3ccccc3n3cc(-c4ccccc4)cc23)cc1` [Example 7, Phenethyl-(2-phenyl-pyrrolo[1,2-a]quinoxalin-4-yl)-amine] here?
A: 126 °C

Q: For `CN(C)c1nc2ccccc2n2cc(-c3ccccc3)cc12` [Example 6, Dimethyl-(2-phenyl-pyrrolo[1,2-a]quinoxalin-4-yl)-amine], which melting point is on record?
A: 109 to 111 °C

Q: For `CCNc1nc2ccccc2n2cc(-c3ccccc3)cc12.Cl`, which melting point is on record?
A: 299 to 301 °C

Q: With `CN(C)c1ccc(-c2cc3c(=O)[nH]c4ccccc4n3c2)cc1` [Example 10, 2-(4-Dimethylamino-phenyl)-5H-pyrrolo[1,2-a]quinoxalin-4-one, trifluoroacetic acid salt] as the compound, how does the inhibition at 1 µM [1] read?
A: 32%

Q: With `CN1CCN(c2ccc3[nH]c(=O)c4cc(-c5ccccc5)cn4c3c2)CC1` [Example 14, 8-(4-Methyl-piperazin-1-yl)-2-phenyl-5H-pyrrolo[1,2-a]quinoxalin-4-one] as the compound, how does the IC50 [2] read?
A: > 10 µM

Q: And the IC50 [1]?
A: 0.011 µM

Q: And the IC50 [3]?
A: > 10 µM

Q: And the IC50 [4]?
A: 8.4 µM

Q: With `O=c1[nH]c2ccc(NCCCN3CCOCC3)cc2n2cc(-c3ccccc3)cc12` [Example 15, 8-(3-Morpholin-4-yl-propylamino)-2-phenyl-5H-pyrrolo[1,2-a]quinoxalin-4-one, trifluoro-acetic acid salt] as the compound, how does the IC50 [2] read?
A: > 10 µM

Q: And the IC50 [1]?
A: 0.0031 µM

Q: What about the inhibition at 10 µM [3] of the same compound?
A: 69%

Q: What about the inhibition at 10 µM [4] of the same compound?
A: 53%

Q: With `O=C(O)C(F)(F)F.O=c1[nH]c2ccc(OCCN3CCOCC3)cc2n2cc(-c3ccccc3)cc12` [Example 17, 8-(2-Morpholin-4-yl-ethoxy)-2-phenyl-5H-pyrrolo[1,2-a]quinoxalin-4-one, trifluoroacetic acid salt] as the compound, how does the IC50 [2] read?
A: > 10 µM

Q: What about the IC50 [1] of the same compound?
A: 0.0035 µM

Q: What about the melting point of the same compound?
A: 190 to 200 °C

Q: What about the inhibition at 10 µM [3] of the same compound?
A: 57%

Q: And the inhibition at 10 µM [4]?
A: 54%
